Assay results published in ChEMBL document CHEMBL1201862, “PubChem BioAssay data set” (2004).
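Exposure lasted 48 hours, with cells grown in 96-well plates and compounds tested at five concentrations. Abbreviation: GI50, concentration required for 50% inhibition of growth.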 Calls of active or inactive are those of the source. Cut-off read from the data, not from the text of the source: active = GI50 up to about 1.1 µM and inactive = higher.

Experiments:
Test in all cases: NCI-60 cell line screen, 48 h
[1] = test system: HCC 2998
[2] = test system: NCI-H23
[3] = test system: M19-MEL
[4] = test system: DLD-1
[5] = test system: SNB-75
[6] = test system: OVCAR-8
[7] = test system: SF-295
[8] = test system: HOP-92
[9] = test system: CAKI-1
[10] = test system: DMS-114
[11] = test system: A498
[12] = test system: 786-0
[13] = test system: SNB-78
[14] = test system: SR

Row | SMILES | GI50 [1] | GI50 [2] | GI50 [3] | GI50 [4] | GI50 [5] | GI50 [6] | GI50 [7] | GI50 [8] | GI50 [9] | GI50 [10] | GI50 [11] | GI50 [12] | GI50 [13] | GI50 [14]
1 | Cc1c(CCO)c(O)n2c(nc3ccccc32)c1C#N | > 100 µM (inactive) | 53.8 µM (inactive) | > 100 µM (inactive) | > 100 µM (inactive) | > 100 µM (inactive) | 83.9 µM (inactive) | > 100 µM (inactive) | 33.1 µM (inactive) | 59 µM (inactive) | 44.5 µM (inactive) | > 100 µM (inactive) | 66.4 µM (inactive) | 61 µM (inactive) | 
2 | O=C(c1ccccc1)c1cccc(C(=O)c2ccccc2)c1 | > 100 µM (inactive) | 98.2 µM (inactive) | > 100 µM (inactive) | > 100 µM (inactive) | 82 µM (inactive) | > 100 µM (inactive) | > 100 µM (inactive) | 53 µM (inactive) | > 100 µM (inactive) | 43.4 µM (inactive) | > 100 µM (inactive) | > 100 µM (inactive) | > 100 µM (inactive) | 97.9 µM (inactive)
3 | CC(=O)OC1COC(N2CCc3ccccc32)C(OC(C)=O)C1OC(C)=O (centres undefined) | > 100 µM (inactive) | > 100 µM (inactive) | > 100 µM (inactive) | > 100 µM (inactive) |  | > 100 µM (inactive) | > 100 µM (inactive) |  | > 100 µM (inactive) | > 91.6 µM (inactive) | > 100 µM (inactive) | > 100 µM (inactive) | > 76.4 µM (inactive) | > 100 µM (inactive)
4 | O=C1C(Cl)C(c2ccccc2Cl)N1n1cnc2ccccc2c1=O (centres undefined) | 39.6 µM (inactive) | 49.1 µM (inactive) | > 100 µM (inactive) | 61.7 µM (inactive) | 20.2 µM (inactive) | > 100 µM (inactive) | 29.4 µM (inactive) |  | 47.6 µM (inactive) | 16.4 µM (inactive) |  | 75.7 µM (inactive) | > 100 µM (inactive) | 5.13 µM (inactive)
5 | CC(=O)O[C@H]1CCC2[C@@H]3CCC4=C(O)C(=O)C(C#N)C[C@]4(C)C3CC[C@@]21C (some centres undefined) | 29 µM (inactive) | 29.1 µM (inactive) | 45.2 µM (inactive) | 25.4 µM (inactive) | 12.6 µM (inactive) | 44.5 µM (inactive) | 45.9 µM (inactive) | 3.8 µM (inactive) |  | 25.6 µM (inactive) | 0.361 µM (active) | 24.4 µM (inactive) | 47.5 µM (inactive) | 
6 | CCOC(=O)C1(C#N)C(c2ccccc2)CC(O)(c2ccc(Cl)cc2)C(C(=O)c2ccc(Cl)cc2)C1c1ccccc1 (centres undefined) | > 100 µM (inactive) | > 100 µM (inactive) | > 100 µM (inactive) | > 100 µM (inactive) | 21.1 µM (inactive) | > 100 µM (inactive) | 41 µM (inactive) |  | > 100 µM (inactive) | > 100 µM (inactive) |  | > 100 µM (inactive) | 82.4 µM (inactive) | > 100 µM (inactive)
7 | CN(C)CC/C(=N\Nc1ccc(Cl)c(Cl)c1)c1ccccc1 |  | 1.84 µM (inactive) | 1.89 µM (inactive) | 3.39 µM (inactive) | 2.4 µM (inactive) | 1.87 µM (inactive) | 1.9 µM (inactive) |  |  | 1.83 µM (inactive) | 2.81 µM (inactive) | 1.71 µM (inactive) | 2.4 µM (inactive) | 2.13 µM (inactive)
8 | CC1=C(C(=O)O)N2C(=O)[C@@H](NC(=O)C(c3ccc(O)cc3)N3CSC(=S)N(C(C)C)C3)C2SC1 (some centres undefined) |  | > 100 µM (inactive) | > 100 µM (inactive) | > 100 µM (inactive) | > 100 µM (inactive) | > 100 µM (inactive) | > 100 µM (inactive) | > 100 µM (inactive) |  | > 100 µM (inactive) | > 100 µM (inactive) | > 100 µM (inactive) | > 100 µM (inactive) | 
9 | CC(CN1CCN(CC(C)Nc2ccnc3cc(Cl)ccc23)CC1)Nc1ccnc2cc(Cl)ccc12 (centres undefined) | 16.6 µM (inactive) | 18.6 µM (inactive) | 21.8 µM (inactive) | 16.9 µM (inactive) | 16.9 µM (inactive) | 18.9 µM (inactive) | 19.6 µM (inactive) |  | 35.4 µM (inactive) | 20.2 µM (inactive) | 18 µM (inactive) | 17.8 µM (inactive) | 21.1 µM (inactive) | 1.83 µM (inactive)
10 | Cc1ccccc1NC(=O)c1nc(S)nc(N)c1-c1ccccc1C | > 100 µM (inactive) | > 100 µM (inactive) | > 100 µM (inactive) | > 100 µM (inactive) | 1.74 µM (inactive) | > 100 µM (inactive) | > 100 µM (inactive) | > 100 µM (inactive) | > 100 µM (inactive) | > 100 µM (inactive) | > 100 µM (inactive) | > 100 µM (inactive) | > 100 µM (inactive) | > 100 µM (inactive)
11 | O=[N+]([O-])c1ccc(C(Cl)C(Cl)c2ccc(C(Cl)C(Cl)c3ccc([N+](=O)[O-])cc3[N+](=O)[O-])cc2)c([N+](=O)[O-])c1 (centres undefined) | 1.96 µM (inactive) | 1.52 µM (inactive) | 1.33 µM (inactive) | 1.78 µM (inactive) | 8.02 µM (inactive) | 0.912 µM (active) | 2.31 µM (inactive) | 1.28 µM (inactive) | 1.67 µM (inactive) | 1.42 µM (inactive) | 2.9 µM (inactive) | 1.39 µM (inactive) | 3.44 µM (inactive) | 2.23 µM (inactive)
12 | Cc1ccc(Oc2ccc(C(=O)c3cccc(C(=O)c4ccc(Oc5ccc(C)cc5)cc4)n3)cc2)cc1 | > 100 µM (inactive) | > 100 µM (inactive) |  | > 100 µM (inactive) | 42.2 µM (inactive) | > 100 µM (inactive) | > 100 µM (inactive) | > 100 µM (inactive) | > 100 µM (inactive) | > 100 µM (inactive) | > 100 µM (inactive) | > 100 µM (inactive) | > 100 µM (inactive) | > 100 µM (inactive)
13 | O=C1CN=C(C[N+](=O)[O-])c2ccccc21 |  | > 100 µM (inactive) |  | > 100 µM (inactive) | > 100 µM (inactive) | > 100 µM (inactive) | > 100 µM (inactive) | > 100 µM (inactive) | > 100 µM (inactive) | > 100 µM (inactive) | > 100 µM (inactive) | > 100 µM (inactive) | > 100 µM (inactive) | > 100 µM (inactive)
14 | C[n+]1c2ccccc2c(NCC(=O)O)c2ccccc21 | > 100 µM (inactive) | > 100 µM (inactive) | > 100 µM (inactive) | > 100 µM (inactive) | > 100 µM (inactive) | > 100 µM (inactive) | > 100 µM (inactive) |  | > 100 µM (inactive) | > 100 µM (inactive) | > 100 µM (inactive) | > 100 µM (inactive) | > 100 µM (inactive) | > 100 µM (inactive)
15 | O=C(CC1C(=O)Nc2ccccc2[S+]1[O-])Nc1ccccc1 (centres undefined) | > 100 µM (inactive) | > 100 µM (inactive) | > 100 µM (inactive) | > 100 µM (inactive) | 29.6 µM (inactive) | 36.4 µM (inactive) | > 100 µM (inactive) | 53.8 µM (inactive) | > 100 µM (inactive) | > 100 µM (inactive) | > 100 µM (inactive) | 40.8 µM (inactive) | > 100 µM (inactive) | 17.2 µM (inactive)
16 | O=C1N=CN=C2C=CC(Cl)=C(I)C12 (centres undefined) | > 100 µM (inactive) | 46.2 µM (inactive) | > 100 µM (inactive) | 58.5 µM (inactive) |  | > 100 µM (inactive) | > 100 µM (inactive) |  | 24.3 µM (inactive) | 84.7 µM (inactive) | 85.3 µM (inactive) | > 100 µM (inactive) |  | 91.8 µM (inactive)
17 | NC(=S)NNC(=O)CCC(=O)Nc1ccc(Cl)cc1Cl | > 100 µM (inactive) | > 100 µM (inactive) | > 100 µM (inactive) | > 100 µM (inactive) | > 100 µM (inactive) | > 100 µM (inactive) | > 100 µM (inactive) | > 100 µM (inactive) | > 100 µM (inactive) | 41.7 µM (inactive) | > 100 µM (inactive) | > 100 µM (inactive) | > 100 µM (inactive) | 
18 | COC(=O)CCC(NC(=S)N/N=C(\C)c1nccs1)C(=O)OC (centres undefined) | 52.5 µM (inactive) | > 100 µM (inactive) | 50.5 µM (inactive) | 40.6 µM (inactive) | 68.2 µM (inactive) | 68.4 µM (inactive) | 87.7 µM (inactive) | > 100 µM (inactive) |  | 22.6 µM (inactive) | > 100 µM (inactive) | 69.3 µM (inactive) | > 100 µM (inactive) | 
19 | COC(=O)C1=Cc2c(OC)cc(OC)c(OC)c2[C@H](c2cc(OC)c(OC)cc2OC)C1C(=O)OC (some centres undefined) | > 100 µM (inactive) | > 100 µM (inactive) | > 100 µM (inactive) | > 100 µM (inactive) | 57.8 µM (inactive) | > 100 µM (inactive) | 88.5 µM (inactive) | > 100 µM (inactive) | > 100 µM (inactive) | > 100 µM (inactive) | > 100 µM (inactive) | > 100 µM (inactive) | 20.7 µM (inactive) | 
20 | CC(C)[C@H](CCl)NC(=O)c1cccc(C(=O)N[C@H](CCl)C(C)C)n1 (stereo in doubt) | > 100 µM (inactive) | > 100 µM (inactive) | > 100 µM (inactive) | > 100 µM (inactive) | > 100 µM (inactive) |  | > 100 µM (inactive) | > 100 µM (inactive) | > 100 µM (inactive) | > 100 µM (inactive) | 78.7 µM (inactive) | > 100 µM (inactive) | > 100 µM (inactive) | > 100 µM (inactive)
21 | NC(=O)c1cc([N+](=O)[O-])cc([N+](=O)[O-])c1 [NITROMIDE] |  | > 100 µM (inactive) | 22.4 µM (inactive) | > 100 µM (inactive) | > 100 µM (inactive) | > 100 µM (inactive) | > 100 µM (inactive) | > 100 µM (inactive) | > 100 µM (inactive) | 38.5 µM (inactive) | > 100 µM (inactive) | > 100 µM (inactive) |  | > 100 µM (inactive)
